According to US11702404B2, “GLP-1R modulating compounds” (priority 2019, dated 2023):
pEC50: −log10 of the molar value.

Molecular target: GLP-1R (Homo sapiens, UniProt P43220)
Assay: GLP-1R activation: cAMP increase in CHO cells stably expressing GLP-1R
Assay type: cell-based
Details: cAMP increase, CHO cells stably expressing GLP-1R, 10 point dose response, 30 minutes incubation; read-out: EC50

Chain of GLP-1R (P43220 24-463): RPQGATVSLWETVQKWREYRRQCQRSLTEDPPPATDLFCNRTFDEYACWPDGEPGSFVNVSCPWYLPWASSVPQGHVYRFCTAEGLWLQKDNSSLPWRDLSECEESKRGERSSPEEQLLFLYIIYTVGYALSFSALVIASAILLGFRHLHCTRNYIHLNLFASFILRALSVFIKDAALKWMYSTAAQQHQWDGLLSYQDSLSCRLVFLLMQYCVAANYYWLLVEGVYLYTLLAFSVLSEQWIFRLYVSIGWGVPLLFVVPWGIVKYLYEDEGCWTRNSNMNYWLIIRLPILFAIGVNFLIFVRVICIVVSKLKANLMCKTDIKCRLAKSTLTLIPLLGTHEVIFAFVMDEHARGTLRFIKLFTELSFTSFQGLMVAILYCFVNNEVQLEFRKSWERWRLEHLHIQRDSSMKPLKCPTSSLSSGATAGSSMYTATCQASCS

Structure (SMILES) | pEC50
COCCn1c(Cc2ccc(-c3cccc(OCc4cccc5c4OCCN5C)n3)cc2F)nc2ccc(C(=O)O)cc21 [Example 149, 2-(2-fluoro-4-(6-((4-methyl-3,4-dihydro-2H-benzo[b][1,4]oxazin-8-yl)methoxy)pyridin-2-yl)benzyl)-1-(2-methoxyethyl)-1H-benzo[d]imidazole-6-carboxylic acid] | 5.69
N#Cc1ccc(COc2cccc(-c3cc(F)c(Cc4nc5ccc(C(=O)O)cc5n4CC4(CO)CC4)cc3F)n2)c(F)c1 [Example 637] | 8.93
COCCn1c(Cc2cc(F)c(-c3nc(OCc4ccc(C#N)cc4F)c(F)cc3F)cc2F)nc2ccc(C(=O)O)cc21 [Example 538, 2-(4-(6-((4-cyano-2-fluorobenzyl)oxy)-3,5-difluoropyridin-2-yl)-2,5-difluorobenzyl)-1-(2-methoxyethyl)-1H-benzo[d]imidazole-6-carboxylic] | 5.37
NC(=O)c1ccc(COc2cc(-c3ccc(Cc4nc5ccc(C(=O)O)cc5[nH]4)c(F)c3)ccc2F)c(F)c1 [Example 469, 2-((3′-((4-carbamoyl-2-fluorobenzyl)oxy)-3,4′-difluoro-[1,1′-biphenyl]-4-yl)methyl)-1H-benzo[d]imidazole-6-carboxylic acid] | ≤ 6.00
COC1(Cn2c(Cc3cc(F)c(-c4cccc(OCc5ccc(C#N)cc5F)n4)cc3F)nc3ccc(C(=O)O)cc32)CN(C(=O)C2CC2)C1 [Example 889, 2-(4-(6-((4-cyano-2-fluorobenzyl)oxy)pyridin-2-yl)-2,5-difluorobenzyl)-1-((1-(cyclopropanecarbonyl)-3-methoxyazetidin-3-yl)methyl)-1H-benzo[d]imidazole-6-carboxylic acid] | 7.16
COCCn1c(Cc2ccc(-c3cccc(OCc4ccc(C(F)F)cc4F)n3)cc2F)nc2ccc(C(=O)O)cc21 [Example 150, 2-(4-(6-((4-(difluoromethyl)-2-fluorobenzyl)oxy)pyridin-2-yl)-2-fluorobenzyl)-1-(2-methoxyethyl)-1H-benzo[d]imidazole-6-carboxylic acid] | 8.47
COCCn1c(Cc2ccc(-c3cccc(OCc4nnc(Cl)s4)n3)cc2F)nc2ccc(C(=O)O)cc21 [Example 590, 2-(4-(6-((5-chloro-1,3,4-thiadiazol-2-yl)methoxy)pyridin-2-yl)-2-fluorobenzyl)-1-(2-methoxyethyl)-1H-benzo[d]imidazole-6-carboxylic acid] | 5.50
COCCn1c(Cc2ccc(-c3cccc(OCc4ccc(Br)c5nsnc45)n3)cc2F)nc2ccc(C(=O)O)cc21 [Example 151, 2-(4-(6-((7-bromobenzo[c][1,2,5]thiadiazol-4-yl)methoxy)pyridin-2-yl)-2-fluorobenzyl)-1-(2-methoxyethyl)-1H-benzo[d]imidazole-6-carboxylic acid] | 8.10
COCCn1c(Cc2ccc(-c3cccc(OCc4cnc(Cl)nc4OC)n3)cc2F)nc2ccc(C(=O)O)cc21 [Example 227, 2-(4-(6-((2-chloro-4-methoxypyrimidin-5-yl)methoxy)pyridin-2-yl)-2-fluorobenzyl)-1-(2-methoxyethyl)-1H-benzo[d]imidazole-6-carboxylic acid] | 7.84
O=C(O)c1ccc2nc(Cc3cc(F)c(-c4nc(OCc5ccc(C(F)F)cc5F)ccc4F)cc3F)n(C[C@@H]3CCO3)c2c1 [Example 787] | 10.10
COc1cc(Cl)ccc1COc1nccc(-c2cc(F)c(Cc3nc4ccc(C(=O)O)cc4n3CC3(CC#N)CC3)cc2F)n1 [Example 446, 2-(4-(2-((4-chloro-2-methoxybenzyl)oxy)pyrimidin-4-yl)-2,5-difluorobenzyl)-1-((1-(cyanomethyl)cyclopropyl)methyl)-1H-benzo[d]imidazole-6-carboxylic acid] | 9.82
CC(C)(Cn1c(Cc2ccc(-c3cccc(OCc4ccc(C#N)cc4F)n3)cc2F)nc2ccc(C(=O)O)cc21)C(F)F [Example 12, 2-(4-(6-((4-cyano-2-fluorobenzyl)oxy)pyridin-2-yl)-2-fluorobenzyl)-1-(3,3-difluoro-2,2-dimethylpropyl)-1H-benzo[d]imidazole-6-carboxylic acid] | 8.75
